The values below come from patent publication US11236087B2, “Highly active pyrazolo-piperidine substituted indole-2-carboxamides active against the hepatitis B virus (HBV)” (AiCuris GmbH & Co. KG, priority 2017, dated 2022).

Structures are written as SMILES.

For one data set, the system named is HBV. Put plainly: Determination of HBV DNA from the supernatants of HepAD38 cells (anti-HBV activity). The settings on record: Hepatitis B virus, 144 h; HBV DNA in HepAD38 supernatant, day 6, qPCR; read-out: Cell Activity (EC50). The format is cell-based, hepatitis B virus. In a few lines: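 HepAD38 cells, tetracycline withdrawn to induce HBV, treated with serial half-log compound dilutions; on day 6 HBV DNA purified from filtered supernatant and quantified by real-time PCR against HBV plasmid standards; EC50 from relative copy numbers by non-linear regression, three experiments in triplicate.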
(In general: In qPCR the cycle at which signal appears reflects the starting amount.)

The next data set deals with T1, HBV core protein (UniProt P03146).
T1 construct: fused on or other part: BODIPY-FL maleimide label on the C-terminal Cys150
T1 sequence (P03146 whole entry, looked up, the tested form may be a part): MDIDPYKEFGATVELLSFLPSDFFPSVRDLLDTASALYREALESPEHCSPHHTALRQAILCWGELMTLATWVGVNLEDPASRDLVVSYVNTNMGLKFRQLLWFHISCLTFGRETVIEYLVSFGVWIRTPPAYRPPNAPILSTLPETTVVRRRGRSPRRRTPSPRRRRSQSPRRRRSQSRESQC
Nature of the data set: Biochemical capsid assembly assay (fluorescence quenching). Also on record: species or system hepatitis B virus. The settings on record: read-out: Assembly Activity (IC50); BODIPY-FL labelled core protein, 300 μM NaCl, read 6 min after start. In a few lines: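 Purified E. coli-expressed HBV core protein (aa 1-149 plus Cys150), BODIPY-FL maleimide-labelled, at 1.0-2.0 μM in 50 mM HEPES pH 7.5 with 0.5% DMSO was used. Compounds were tested at 8 concentrations (0.5-log dilutions from 100, 31.6 or 10 μM). Assembly was started with NaCl ([…]), and fluorescence quenching was read after 6 min (ex 477/em 525 nm). EC50 was determined by non-linear regression.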

The nature of data set [1]: Cell viability assay (AlamarBlue) in HepAD38 cells. The settings on record: human. Background: The colour change of resazurin is a common sign of viable cells or microbes.

Usually EC50 stands for the concentration giving half of the maximal effect. In general, IC50 refers to the midpoint of a concentration-inhibition curve. Broadly, the CC50 is the concentration giving 50% cytotoxicity. A lower CC50 goes with harm at low concentration. In the case of `O=C(c1cc2ccccc2[nH]1)N1CCc2[nH]nc(NCC3CCOCC3)c2C1` [Example 81, 5-(1H-indole-2-carbonyl)-N-[(oxan-4-yl)methyl]-1H,4H,5H,6H,7H-pyrazolo[4,3-c]pyridin-3-amine], in the data set with HBV, the EC50 fell in the range of 1 to 25 µM. For the same compound, the IC50 at HBV core protein was below 100 µM. Moreover, the CC50 at 6 days in data set [1] was above 100 µM.
On the same counts, the results for `CS(=O)(=O)Nc1n[nH]c2c1CN(C(=O)c1cc3ccccc3[nH]1)CC2` [Example 82, N-[5-(1H-indole-2-carbonyl)-1H,4H,5H,6H,7H-pyrazolo[4,3-c]pyridin-3-yl]methanesulfonamide] are below 100 µM, below 100 µM and above 100 µM.
Take `CN(CC1CCOCC1)C(=O)c1n[nH]c2c1CN(C(=O)c1cc3ccccc3[nH]1)CC2` [Example 85, 5-(1H-indole-2-carbonyl)-N-methyl-N-[(oxan-4-yl)methyl]-1H,4H,5H,6H,7H-pyrazolo[4,3-c]pyridine-3-carboxamide]: in the data set with HBV, the EC50 was in the range of 1 to 25 µM. Moreover, the concentration for half-maximal inhibition (IC50) on HBV core protein was below 100 µM. The CC50 at 6 days in data set [1] was above 100 µM.
On the same counts, the results for `O=C(c1cc2ccccc2[nH]1)N1CCc2[nH]nc(NCc3ccccc3)c2C1` [Example 91, N-benzyl-5-(1H-indole-2-carbonyl)-1H,4H,5H,6H,7H-pyrazolo[4,3-c]pyridin-3-amine] are 1 to 25 µM, 5 to 10 µM and above 100 µM.
On the same counts, the results for `CN(CC1CCOC1)C(=O)c1n[nH]c2c1CN(C(=O)c1cc3ccccc3[nH]1)CC2` (stereo not drawn) [Example 95, 5-(1H-indole-2-carbonyl)-N-methyl-N-[(oxolan-3-yl)methyl]-1H,4H,5H,6H,7H-pyrazolo[4,3-c]pyridine-3-carboxamide] are 1 to 25 µM, below 100 µM and above 100 µM.
On the same counts, the results for `O=C(NCC1CCOC1)c1n[nH]c2c1CN(C(=O)c1cc3ccccc3[nH]1)CC2` (stereo not drawn) [Example 96, 5-(1H-indole-2-carbonyl)-N-[(oxolan-3-yl)methyl]-1H,4H,5H,6H,7H-pyrazolo[4,3-c]pyridine-3-carboxamide] are 1 to 25 µM, below 100 µM and above 100 µM.
For `CN(CC1CCCO1)C(=O)c1n[nH]c2c1CN(C(=O)c1cc3ccccc3[nH]1)CC2` (stereo not drawn) [Example 97, 5-(1H-indole-2-carbonyl)-N-methyl-N-[(oxolan-2-yl)methyl]-1H,4H,5H,6H,7H-pyrazolo[4,3-c]pyridine-3-carboxamide], the EC50 in the data set on HBV was below 1 µM. Also, the IC50 on HBV core protein was in the range of 5 to 10 µM. The compound also showed a CC50 at 6 days in data set [1] above 100 µM.
On the same counts, the results for `CN1CCN(C(=O)c2n[nH]c3c2CN(C(=O)c2cc4ccccc4[nH]2)CC3)CC1` [Example 98, 2-[3-(4-methylpiperazine-1-carbonyl)-1H,4H,5H,6H,7H-pyrazolo[4,3-c]pyridine-5-carbonyl]-1H-indole] are 1 to 25 µM, below 100 µM and above 32 µM.
On the same counts, the results for `O=C(c1cc2ccccc2[nH]1)N1CCc2[nH]nc(C(=O)N3CCCC3)c2C1` [Example 99, 2-[3-(pyrrolidine-1-carbonyl)-1H,4H,5H,6H,7H-pyrazolo[4,3-c]pyridine-5-carbonyl]-1H-indole] are 1 to 25 µM, 5 to 10 µM and above 100 µM.
On the same counts, the results for `CN(CCO)C(=O)c1n[nH]c2c1CN(C(=O)c1cc3ccccc3[nH]1)CC2` [Example 100, N-(2-hydroxyethyl)-5-(1H-indole-2-carbonyl)-N-methyl-1H,4H,5H,6H,7H-pyrazolo[4,3-c]pyridine-3-carboxamide] are below 1 µM, below 5 µM and above 100 µM.
For the compound `CS(=O)(=O)CCNC(=O)c1n[nH]c2c1CN(C(=O)c1cc3ccccc3[nH]1)CC2` [Example 101, 5-(1H-indole-2-carbonyl)-N-(2-methanesulfonylethyl)-1H,4H,5H,6H7H-pyrazolo[4,3-c]pyridine-3-carboxamide], the EC50 in the data set with HBV was below 100 µM. In addition, the IC50 on HBV core protein is below 100 µM. The compound further registered a CC50 at 6 days in data set [1] above 100 µM.
Consider `CN(CCCO)C(=O)c1n[nH]c2c1CN(C(=O)c1cc3ccccc3[nH]1)CC2` [Example 102, N-(3-hydroxypropyl)-5-(1H-indole-2-carbonyl)-N-methyl-1H,4H,5H,6H,7H-pyrazolo[4,3-c]pyridine-3-carboxamide], for which the EC50 with HBV was below 1 µM. For the same compound, the IC50 on HBV core protein is below 5 µM. In data set [1], this compound showed a CC50 at 6 days above 100 µM.
On the same counts, the results for `CCN(C)C(=O)c1n[nH]c2c1CN(C(=O)c1cc3ccccc3[nH]1)CC2` [Example 103, N-ethyl-5-(1H-indole-2-carbonyl)-N-methyl-1H,4H,5H,6H,7H-pyrazolo[4,3-c]pyridine-3-carboxamide] are below 1 µM, below 5 µM and above 100 µM.
On to `COCCNC(=O)c1n[nH]c2c1CN(C(=O)c1cc3ccccc3[nH]1)CC2` [Example 104, 5-(1H-indole-2-carbonyl)-N-(2-methoxyethyl)-1H,4H,5H,6H,7H-pyrazolo[4,3-c]pyridine-3-carboxamide], for which the concentration for a half-maximal effect (EC50) in the data set with HBV lay within 1 to 25 µM. In addition, at HBV core protein, the IC50 is below 100 µM. Moreover, the CC50 at 6 days in data set [1] is above 100 µM.
For the compound `O=C(NCCCO)c1n[nH]c2c1CN(C(=O)c1cc3ccccc3[nH]1)CC2` [Example 105, N-(3-hydroxypropyl)-5-(1H-indole-2-carbonyl)-1H,4H,5H,6H,7H-pyrazolo[4,3-c]pyridine-3-carboxamide], the EC50 in the data set on HBV is 1 to 25 µM. Further, at HBV core protein, the IC50 was below 100 µM. Moreover, the CC50 at 6 days in data set [1] is above 100 µM.
Turning to `NC(=O)c1n[nH]c2c1CN(C(=O)c1cc3ccccc3[nH]1)CC2` [Example 106, 5-(1H-indole-2-carbonyl)-1H,4H,5H,6H,7H-pyrazolo[4,3-c]pyridine-3-carboxamide], the EC50 in the data set on HBV is below 100 µM. For the same compound, the IC50 on HBV core protein is below 100 µM. In data set [1], this compound came in with a CC50 at 6 days above 100 µM.
Consider `O=C(NCCO)c1n[nH]c2c1CN(C(=O)c1cc3ccccc3[nH]1)CC2` [Example 107, N-(2-hydroxyethyl)-5-(1H-indole-2-carbonyl)-1H,4H,5H,6H,7H-pyrazolo[4,3-c]pyridine-3-carboxamide], for which the EC50 in the data set on HBV lay in the range of 1 to 25 µM. At HBV core protein, the IC50 is below 100 µM. For the same compound, the CC50 at 6 days in data set [1] is above 100 µM.
Regarding `O=C(c1cc2ccccc2[nH]1)N1CCc2[nH]nc(C(=O)N3CCOCC3)c2C1` [Example 108, 2-[3-(morpholine-4-carbonyl)-1H,4H,5H,6H,7H-pyrazolo[4,3-c]pyridine-5-carbonyl]-1H-indole], the EC50 with HBV was 1 to 25 µM. Moreover, the IC50 at HBV core protein was below 100 µM. This compound returned a CC50 at 6 days in data set [1] above 100 µM.
On the same counts, the results for `CCNC(=O)c1n[nH]c2c1CN(C(=O)c1cc3ccccc3[nH]1)CC2` [Example 109, N-ethyl-5-(1H-indole-2-carbonyl)-1H,4H,5H,6H,7H-pyrazolo[4,3-c]pyridine-3-carboxamide] are 1 to 25 µM, 5 to 10 µM and above 100 µM.
On the same counts, the results for `O=C(c1cc2ccccc2[nH]1)N1CCc2[nH]nc(C(=O)N3CCCCC3)c2C1` [Example 112, 2-[3-(piperidine-1-carbonyl)-1H,4H,5H,6H,7H-pyrazolo[4,3-c]pyridine-5-carbonyl]-1H-indole] are below 1 µM, below 5 µM and above 32 µM.
On the same counts, the results for `CON(C)C(=O)c1n[nH]c2c1CN(C(=O)c1cc3c(Cl)cccc3[nH]1)CC2` [Example 113, 5-(4-chloro-1H-indole-2-carbonyl)-N-methoxy-N-methyl-1H,4H,5H,6H,7H-pyrazolo[4,3-c]pyridine-3-carboxamide] are below 1 µM, below 5 µM and above 100 µM.
On to `O=C(c1cc2c(F)cccc2[nH]1)N1CCc2[nH]ncc2C1` [Example 114, 4-fluoro-2-{1H,4H,5H,6H,7H-pyrazolo[4,3-c]pyridine-5-carbonyl}-1H-indole], for which the EC50 in the data set with HBV was below 1 µM. Moreover, the IC50 on HBV core protein is below 5 µM. The compound further showed a CC50 at 6 days in data set [1] above 100 µM.
On the same counts, the results for `Nc1n[nH]c2c1CN(C(=O)c1cc3ccccc3[nH]1)CC2` [Example 115, 5-(1H-indole-2-carbonyl)-1H,4H,5H,6H,7H-pyrazolo[4,3-c]pyridin-3-amine] are 1 to 25 µM, 5 to 10 µM and above 100 µM.
On the same counts, the results for `Cc1noc(-c2n[nH]c3c2CN(C(=O)c2cc4ccccc4[nH]2)CC3)n1` [Example 116, 2-[3-(3-methyl-1,2,4-oxadiazol-5-yl)-1H,4H,5H,6H,7H-pyrazolo[4,3-c]pyridine-5-carbonyl]-1H-indole] are below 100 µM, 5 to 10 µM and above 100 µM.
On the same counts, the results for `O=C(c1cc2c(F)cc(F)cc2[nH]1)N1C2CCC1c1cn[nH]c1C2` (stereo not drawn) [Example 117, 11-(4,6-difluoro-1H-indole-2-carbonyl)-4,5,11-triazatricyclo[6.2.1.0^2,6]undeca-2(6),3-diene] are below 100 µM, below 100 µM and above 100 µM.
Turning to `O=C(c1cc2ccccc2[nH]1)N1CCc2[nH]nc(CO)c2C1` [Example 118, [5-(1H-indole-2-carbonyl)-1H,4H,5H,6H,7H-pyrazolo[4,3-c]pyridin-3-yl]methanol], in the data set with HBV, the EC50 is 1 to 25 µM. Besides, at HBV core protein, the IC50 was in the range of 5 to 10 µM. Also, in data set [1], the CC50 at 6 days is above 100 µM.
